Laboratory results: paper PMC12040169 (PLOS Biology, 2025)

Tests used:
in vitro [1] = experiment: in vitro; design: Viability of infected HeLa host cells, resazurin conversion, bulk resorufin fluorescence relative to DMSO; details: human, hela cells; bulk resorufin, mean of 2
[2] = system: T1, CTL2-GFP (C. trachomatis L2/434/Bu, GFP-expressing); experiment: microbe, parasite or virus in culture; design: Intracellular C. trachomatis growth in HeLa cells, bulk GFP fluorescence relative to DMSO; details: Chlamydia trachomatis, HeLa, 28.5 h; bulk GFP, mean of 2; read-out: % of control remaining
T1 construct: L2/434/Bu, GFP-expressing
Description: MICs were calculated as described above.

[3] = system: T2, C. trachomatis L2/434/Bu expressing GFP (CTL2-GFP); experiment: microbe, parasite or virus in culture; design: C. trachomatis total inclusion area by high-content imaging, normalised to DMSO; details: Chlamydia trachomatis, HeLa, 28.5 h; total inclusion area; read-out: % of control remaining
T2 construct: L2/434/Bu GFP intracellular growth in HeLa cells
Outline: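 Screening measures GFP fluorescence from the reporter strain and resorufin fluorescence for host viability, with Hoechst-based imaging of fixed cells adding inclusion area, inclusion number and nuclei count per well.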

in vitro [4] = details: human, hela cells, % viability

SMILES	viability at 28.5 h, 1 µM (in vitro [1]) [%]	viability at 28.5 h, 5 µM (in vitro [1]) [%]	viability at 28.5 h, 10 µM (in vitro [1]) [%]	activity at 1 µM [2] [%]	activity at 5 µM [2] [%]	activity at 10 µM [2] [%]	activity at 1 µM [3] [%]	activity at 5 µM [3] [%]	activity at 10 µM [3] [%]	viability at 28.5 h, 10 µM (in vitro [4]) [%]
OC(CN1CCN(Cc2ccccc2)CC1)Cn1c2ccc(Br)cc2c2cc(Br)ccc21 (centres unmarked) [CBK262203]	94.6	90.4	90	104	98.6	88.8	102	94.9	35	94.4
CC1=NN(c2ccccc2)C(=O)/C1=C/Nc1ccc(S(=O)(=O)Nc2nc(C)cc(C)n2)cc1 [CBK262368]	96.6	93.9	96.8	46.9	21	13.7	70.2	28.2	14.1	106
CC1=NN(c2ccc(C)cc2)C(=O)/C1=C\Nc1ccc(S(=O)(=O)Nc2nc(C)cc(C)n2)cc1 [CBK262398]	94.6	99.4	118	83.6	16.3	2.4	91.7	40.5	18	92.8
Cc1ccc(Cn2c(=N)n(CC(=O)c3cc(C(C)(C)C)c(O)c(C(C)(C)C)c3)c3ccccc32)cc1 [CBK262458B]	92.1	96.7	101	127	56.5	91.9	99.9	36.5	52	82.6
CC(Nc1cccc2ccccc12)C(=O)N/N=C/c1ccc(O)cc1O (centres unmarked) [CBK262681]	89.9	86.9	82.2	103	62.9	42.4	91.4	46.9	24.5	75.9
C/C(Nc1ccc(S(=O)(=O)Nc2nccc(C)n2)cc1)=C1\C(=O)N(c2nc3ccccc3s2)N=C1C(F)(F)F [CBK263002]	93.4	89.8	88.6	31.6	15.5	14.3	62.8	27.5	22.8	90.1
CCc1nnc(NS(=O)(=O)c2ccc(N/C=C\C(=O)c3ccc4ccccc4c3)cc2)s1 [CBK263385]	93.6	95.1	88.7	109	23.6	24	110	33.1	19.1	91.4
COc1c(Br)cc2c(cc(C)n2-c2ccccc2)c1OCC(O)CNC(C)C (centres unmarked) [CBK263516]	99.6	83	91.3	6.43	9.2	7.41	1.64	0.762	0.887	93.8
COc1ccc(C2CC(=O)C=C(Nc3cc(Cl)ccc3O)C2)cc1 (centres unmarked) [CBK263542]	90.9	101	87.8	86	0	9.05	81.9	0.174	3.14	105
Cc1cc(C)nc(NS(=O)(=O)c2ccc(NC(=O)N3c4ccccc4Sc4ccccc43)cc2)n1 [CBK263922]	92.3	90.2	89.4	115	67.1	28.2	112	51.2	28.5	101
CCC(Sc1nnc2c(n1)[nH]c1ccccc12)C(=O)N1c2ccccc2Sc2ccccc21 (centres unmarked) [CBK263929]	94.1	89.8	88.6	60.4	52.9	44.5	32.8	30.8	13.4	95.1
COc1cccc(C(=O)/C=C\Nc2ccc(S(=O)(=O)Nc3onc(C)c3C)cc2)c1 [CBK264206]	106	104	114	83.7	25.4	8.04	68.5	28.9	19	93.4
Cc1noc(NS(=O)(=O)c2ccc(N/C=C\C(=O)c3cccnc3)cc2)c1C [CBK264285]	106	103	104	72.6	13.6	11.8	69.7	26.3	17.9	102
O=C1C(NCCO)=C(Nc2cccc(Cl)c2)C(=O)c2ccccc21 [CBK264323]	102	98.6	88.4	93	48.6	35.5	90.7	34.6	14.8	91.7
Cc1ccc(S(=O)(=O)Nc2cc(SCC(=O)O)c(O)c3ccccc23)cc1 [CBK265708]	103	99.6	97.8	92.1	51.3	33	75.1	34.7	13.4	87.1
CCN(CC)CCNc1nc(-c2cccc(Cl)c2)nc2ccccc12 [CBK267265C]	104	104	108	108	98.1	55.5	85	45.3	26.4	90.7
Cc1cc(C(=O)Nc2cccc(S(=O)(=O)N3CCOCC3)c2)sc1-c1ccccc1 [CBK268185]	106	96.9	98.5	102	88.9	77.7	107	82.1	51.4	102
